Experimental data as given in patent US3985779A, “M-phenoxyphenyl propionic acid derivatives and preparation thereof” (Eisai Co., Ltd., priority 1973, dated 1976).

Columns and labels:
[1] = test system: Dextran-induced edema; assay: Inhibitory activity on dextran-induced edema in rats (Experiment C); assay type: in vivo
Procedure: Inhibitory activity on dextran-induced edema in rats Experiment was carried out in the manner same as those of the preceding Experiments in which dextran was employed as irritant substance.

[2] = test system: ARRS-induced edema; assay: Inhibitory activity on anti-rat-rabbit serum (ARRS)-induced edema in rats (Experiment D); assay type: in vivo
Procedure: Inhibitory activity on anti-rat-rabbit serum (ARRS)-induced edema in rats Similar Experiments was carried out by using ARRS as irritant substance.

[3] = test system: Carrageenin-induced edema; assay: Inhibitory activity on Carrageenin-induced Edema in rats (Experiment A); assay type: in vivo, rats (male Wistar); conditions: 3 hours after Carrageenin
Procedure: Inhibitory activity on Carrageenin-induced Edema in rats
Carrageenin was used as the agent for inducing edema and 5 male rats of Wistar strain having body weight of about 150 grs. after fasting for 16-17 hours were used as test animals. The inhibitory activity of the test compounds were determined with the paw edema method in accordance with Winter C. A. et al; Proc. Soc. Exp. Biol. Med. 111, 544 (1962).
The compounds were suspended in an aqueous solution of gum arabic and the same were orally administered to the rats at 1 hour before the injection of Carrageenin.
The observation was effected by measuring, after 3 hours the administration of the Carrageenin, the enlarged volumes of hind paw of the rats.

[4] = test system: Kaolin-induced edema; assay: Inhibitory activity on Kaolin-induced Edema in Rats (Experiment B); assay type: in vivo

## CC(C(=O)O)c1cccc(Oc2ccc(Cl)cc2)c1 (centres unmarked) [(4)]
[1]; after 2 hrs, oral 8 mg/kg
  % of Inhibition: 10%
  Edema D. ± S.E.: .753 ± .052
[1]; after 2 hrs, oral 40 mg/kg
  % of Inhibition: 6%
  Edema D. ± S.E.: .780 ± .033
[1]; after 3 hrs, oral 8 mg/kg
  % of Inhibition: 10%
  Edema D. ± S.E.: .780 ± .033
[1]; after 3 hrs, oral 40 mg/kg
  % of Inhibition: 8%
  Edema D. ± S.E.: .692 ± .048
[2]; after 2 hrs, oral 8 mg/kg
  % of Inhibition: 5%
  Edema D. ± S.E.: .649 ± .032
[2]; after 2 hrs, oral 40 mg/kg
  % of Inhibition: 17%
  Edema D. ± S.E.: .563 ± .016
[2]; after 3 hrs, oral 8 mg/kg
  % of Inhibition: 13%
  Edema D. ± S.E.: .621 ± .058
[2]; after 3 hrs, oral 40 mg/kg
  % of Inhibition: 25%
  Edema D. ± S.E.: .535 ± .027
[3]; oral 8.0 mg/kg
  % of Inhibition: 12%
  Edema density ± S.E.: .477 ± .049
[3]; oral 40.0 mg/kg
  % of Inhibition: 46%
  Edema density ± S.E.: .293 ± .056
[4]; after 3 hrs, oral 8 mg/kg
  % of Inhibition: 12%
  Edema D. ± S.E.: .369 ± .048
[4]; after 3 hrs, oral 40 mg/kg
  % of Inhibition: 35%
  Edema D. ± S.E.: .271 ± .075
[4]; after 5 hrs, oral 8 mg/kg
  % of Inhibition: 8%
  Edema D. ± S.E.: .519 ± .035
[4]; after 5 hrs, oral 40 mg/kg
  % of Inhibition: 41%
  Edema D. ± S.E.: .333 ± .073
[4]; after 7 hrs, oral 8 mg/kg
  % of Inhibition: -3%
  Edema D. ± S.E.: .625 ± .040
[4]; after 7 hrs, oral 40 mg/kg
  % of Inhibition: 35%
  Edema D. ± S.E.: .396 ± .072
